Data reported in US10654836B2, “Pyrimidine derivative, method for preparing same and use thereof in medicine” (Zhejiang Hisun Pharmaceutical Co., Ltd., priority 2016, dated 2020).
Values belong to the molecule of their own block, whether it stands above or below them.

Assays:
[1] = system: hepatocellular carcinoma tumor cell Huh7 xenografts; experiment: Growth inhibition of Huh7 xenografts in tumor-bearing BALB/c nude mice; assay type: in vivo; conditions: bid
Procedure: On day 0, Huh7 cells were cultured in DMEM medium containing 10% of fetal bovine serum, 100 U of penicillin, and 100 μg/mL of streptomycin. And cultured in an incubator of 37° C., 5% CO2.
Each mouse was inoculated subcutaneously in the right axilla with 150 μL of cell suspension (5.0×10^6 cells/mouse) under sterile conditions. On day 12 after inoculation, when the tumor grew to a volume of 200-300 mm^3, mice with similar tumor volume and good shape were selected (the shape was as single spherical as possible, no irregular shape or multiple tumors gathered together) and divided into 5 groups, each group had 9 mice.
(§1) Each group of animals was administrated (intraperitoneal injection (ip) or oral administration (po)) a test substance twice a day (bid) at a fix time per day according to the body weight of the animals. The first dose was administered on the day of grouping ([…]), and continued for 22 days, the body weight of the animals was recorded daily.
The formation of tumor in the inoculated part of each group of animals was observed. The long diameter (Y) and short diameter (X) of the tumor nodules were measured twice a week using vernier calipers and calculated according to the following formula: Volume of tumor nodules(V): V=(X^2Y)/2.
Evaluation index of antitumor activity: tumor growth inhibition rate TGI (%), relative tumor proliferation rate T/C (%).
The relative tumor volume (RTV) is calculated as: RTV=100×TVt/TVinitial
wherein, TVinitial is the tumor volume measured at the time of grouping administration; TVt is the tumor volume at each measurement during administration.
The calculation formula for the relative tumor proliferation rate (% T/C) is: % T/C=100%×(RTVT/RTVC)
wherein, RTVT represents RTV of the treatment group; RTVC represents RTV of the solvent control group.
wherein, TVt(T) represents the tumor volume at each measurement in the treatment group; TVinitial(T) represents the tumor volume of the treatment group at the time of grouping administration; TVt(C) represents the tumor volume at each measurement in the solvent control group; TVinitial(C) represents the tumor volume of the solvent control group at the time of grouping administration.
wherein, WC represents the tumor weight of the control group; WT represents the tumor weight of the treatment group.

[2] = system: hepatocellular carcinoma tumor cells Huh7; experiment: Huh7 tumor cell proliferation inhibition (CCK-8); assay type: cell-based, human; conditions: 72 hours culture
Procedure: For the FGFR4 subtype, hepatocellular carcinoma tumor cells Huh7 (purchased from the Cell Resource Center of Shanghai Institutes for Biological Sciences, Chinese Academy of Sciences) were used to determine the inhibition against the activity of hepatocellular carcinoma tumor cells. Huh7 cells were cultured in a DMEM medium containing 10% of fetal bovine serum, 100 U of penicillin and 100 μg/mL of streptomycin. Cultured in an incubator of 37° C., 5% CO2. Hepatocellular carcinoma tumor cell activity was measured by using a kit of Cell Counting Kit-8 (Dojindo, Dojindo Molecular Technologies, Inc).
The experimental method was carried out according to the steps of the kit instructions, and is briefly described as follows: the test compound was first dissolved in DMSO to prepare a stock solution, and then gradiently diluted with the corresponding medium of the cells to prepare a test sample, and the final concentration of the compound was in the range of 30 μM to 0.01 nM. Tumor cells in the logarithmic phase were seeded into 96-well cell culture plates at a suitable density, cultured in an incubator of 37° C., 5% CO2 overnight, then test compound samples were added and continued to culture the cells for 72 hours.

[3] = Body weight and weight loss rate of Huh7 tumor-bearing BALB/c nude mice during administration; assay type: in vivo; conditions: 25 mg/kg IP, bid
Procedure: as §1
The calculation formula for the weight loss rate of animals is (see FIG. 3 for the results): Weight loss rate of animals=100%×(BWinitial−BWt)/BWinitial
wherein, BWt represents the body weight of the animal at each measurement during administration; BWinitial represents the body weight of the animal at the time of grouping administration.

[4] = 25 mg/kg IP, end of the experiment

Structure (SMILES): C=CC(=O)Nc1cc(N2CCN(CC)C3(CC3)C2)ccc1Nc1cc(N(C)C(=O)Nc2c(Cl)c(OC)cc(OC)c2Cl)ncn1 [Example 5, N-(2-((6-(3-(2,6-Dichloro-3,5-dimethoxyphenyl)-1-methylureido)pyrimidin-4-yl)amino)-5-(4-ethyl-4,7-diazaspiro[2.5]octan-7-yl)phenyl)acrylamide]
Tumor weight (g) Mean ± standard error [1, 4]: 0.8393 ± 0.0602 g
Tumor weight (g) Mean ± standard error ([1]; 50 mg/kg IP, end of the experiment): 0.6473 ± 0.0597 g
Tumor weight (g) Mean ± standard error ([1]; 300 mg/kg PO, end of the experiment): 0.0562 ± 0.0069 g

IC50 [2]: 18 nM
Structure (SMILES): C=CC(=O)Nc1cc(N2CCN(CC)CC2)ccc1Nc1cc(N(C)C(=O)Nc2c(Cl)c(OC)cc(OC)c2Cl)ncn1 [Example 108 of WO2015057938, reference compound]
Tumor growth inhibition rate (TGI %) ([1]; 25 mg/kg IP, Day 16 after inoculation): 34%
Tumor growth inhibition rate (TGI %) ([1]; 25 mg/kg IP, Day 20 after inoculation): 21%
Tumor growth inhibition rate (TGI %) ([1]; 25 mg/kg IP, Day 23 after inoculation): 21%
Tumor growth inhibition rate (TGI %) ([1]; 25 mg/kg IP, Day 27 after inoculation): 29%
Tumor growth inhibition rate (TGI %) ([1]; 25 mg/kg IP, Day 30 after inoculation): 24%
Tumor growth inhibition rate (TGI %) ([1]; 25 mg/kg IP, Day 34 after inoculation): 16%
Tumor weight (g) Mean ± standard error [1, 4]: 0.9106 ± 0.0583 g
Tumor weight inhibition rate (%) [1, 4]: 2.2%
Animal body weight ± standard error ([3]; Day 13 after inoculation): 18.0 ± 0.3 g
weight loss rate (%) ([3]; Day 13 after inoculation): 0%
Animal body weight ± standard error ([3]; Day 16 after inoculation): 18.1 ± 0.3 g
weight loss rate (%) ([3]; Day 16 after inoculation): −0.62%
Animal body weight ± standard error ([3]; Day 20 after inoculation): 19.2 ± 0.4 g
weight loss rate (%) ([3]; Day 20 after inoculation): −6.7%
Animal body weight ± standard error ([3]; Day 23 after inoculation): 18.3 ± 0.2 g
weight loss rate (%) ([3]; Day 23 after inoculation): −2.0%
Animal body weight ± standard error ([3]; Day 27 after inoculation): 18.4 ± 0.3 g
weight loss rate (%) ([3]; Day 27 after inoculation): −2.7%
Animal body weight ± standard error ([3]; Day 30 after inoculation): 18.7 ± 0.2 g
weight loss rate (%) ([3]; Day 30 after inoculation): −4.2%
Animal body weight ± standard error ([3]; Day 34 after inoculation): 18.9 ± 0.3 g
weight loss rate (%) ([3]; Day 34 after inoculation): −5.0%
